Measured values as given in ChEMBL document CHEMBL4831527, “Structure-Based Design and Discovery of Pyridyl-Bearing Fused Bicyclic HIV-1 Inhibitors: Synthesis, Biological Characterization, and Molecular Modeling Studies” (J Med Chem, 2021).
Activity calls are given as the source filed them. The calls are words filed in the database; no cut-off is given here.

Key:
[1] = tested on: Human immunodeficiency virus 1; assay: Antiviral activity against HIV1 3B infected in human MT4 cells assessed as protection against virus-induced cytopathic effect incubated for 5 days by MTT assay; type: functional, organism-based; conditions: Human immunodeficiency virus 1, 3B, MT4, 120 h
[2] = tested on: Human immunodeficiency virus 1; assay: Antiviral activity against HIV1 harboring reverse transcriptase F227L/V106A double mutant infected in human MT4 cells assessed as protection against virus-induced cytopathic effect incubated for 5 days by MTT assay; type: functional, organism-based; conditions: Human immunodeficiency virus 1, MT4, 120 h
[3] = tested on: Human immunodeficiency virus 1; assay: Potency index, ratio of ETR EC50 to test compound EC50 for antiviral activity against HIV1 harboring reverse transcriptase E138K mutant infected in human MT4 cells; type: functional
[4] = tested on: Human immunodeficiency virus 1; assay: Antiviral activity against HIV1 harboring reverse transcriptase Y188L mutant infected in human MT4 cells assessed as protection against virus-induced cytopathic effect incubated for 5 days by MTT assay; type: functional, organism-based; conditions: Human immunodeficiency virus 1, MT4, 120 h
[5] = tested on: Human immunodeficiency virus 1; assay: Antiviral activity against HIV1 harboring reverse transcriptase Y181C mutant infected in human MT4 cells assessed as protection against virus-induced cytopathic effect incubated for 5 days by MTT assay; type: functional, organism-based; conditions: Human immunodeficiency virus 1, MT4, 120 h
[6] = Selectivity index, ratio of CC50 for mock-infected human MT4 cells to EC50 for HIV1 3B infected in human MT4 cells; type: toxicity, cell-based; conditions: MT4 cells (mock-infected and HIV1 3B infected), read-out: Ratio CC50/EC50
[7] = tested on: Human immunodeficiency virus 1; assay: Antiviral activity against HIV1 RES056 infected in human MT4 cells assessed as protection against virus-induced cytopathic effect incubated for 5 days by MTT assay; type: functional, organism-based; conditions: Human immunodeficiency virus 1, RES056, MT4, 120 h
[8] = tested on: Human immunodeficiency virus 1; assay: Antiviral activity against HIV1 harboring reverse transcriptase L100I mutant infected in human MT4 cells assessed as protection against virus-induced cytopathic effect incubated for 5 days by MTT assay; type: functional, organism-based; conditions: Human immunodeficiency virus 1, MT4, 120 h
[9] = Cytotoxicity against mock-infected human MT4 cells assessed as reduction in cell viability measured after 5 days by MTT assay; type: cell-based; conditions: time 5 day
[10] = tested on: Human immunodeficiency virus 1; assay: Antiviral activity against HIV1 harboring reverse transcriptase K103N mutant infected in human MT4 cells assessed as protection against virus-induced cytopathic effect incubated for 5 days by MTT assay; type: functional, organism-based; conditions: Human immunodeficiency virus 1, MT4, 120 h
[11] = Half life in human liver microsomes at 1 uM in presence of NADPH by LC-MS/MS analysis; type: ADME, Microsome
[12] = biological target: Human immunodeficiency virus type 1 reverse transcriptase (Human immunodeficiency virus 1, UniProt Q72547); assay: Inhibition of wild type HIV1 p66/p51 reverse transcriptase using poly(rA) as template, oligo(dT)16 as primer and RNA/DNA as substrate measured after 40 mins by PICOGreen-dye based spectrofluorimetry analysis
[13] = in vitro; conditions: human, liver microsomes
[14] = tested on: Human immunodeficiency virus 2; assay: Antiviral activity against HIV2 ROD infected in human MT4 cells assessed as protection against virus-induced cytopathogenicity after 5 days by MTT assay; type: functional, organism-based; conditions: time 5.0 day
[15] = Selectivity index, ratio of CC50 for mock-infected human MT4 cells to EC50 for HIV1 RES056 infected in human MT4 cells; type: toxicity, cell-based; conditions: MT4 cells (mock-infected and HIV1 RES056 infected), read-out: Ratio CC50/EC50
[16] = tested on: Human immunodeficiency virus 1; assay: Antiviral activity against HIV1 harboring reverse transcriptase E138K mutant infected in human MT4 cells assessed as protection against virus-induced cytopathic effect incubated for 5 days by MTT assay; type: functional, organism-based; conditions: Human immunodeficiency virus 1, MT4, 120 h

In the case of `Cc1cc(C#N)cc(C)c1Oc1nc(Nc2ccc(C#N)cc2)nc2c1ccn2CC(=O)N1CCOCC1`, the EC50 [1] is reported as 7.7 nM, the EC50 [2] is reported as 146 nM and the “Ratio EC50” value [3] is reported as 2.2. The EC50 [4] was 56.7 nM, the EC50 [5] was 148 nM and the selectivity ratio [6] was 297. It also gave an EC50 [7] of 782 nM, an EC50 [8] of 154 nM and a CC50 at 120 h [9] of 2300 nM. For the same compound, the EC50 [10] was 5.9 nM, the half-life at 1 µM [11] was 3.1 min and the IC50 [12] was 155 nM. The CLint scaled at 1 h, 1 µM [13] was 397 mL/min/kg, the Activity [14] was “inactive” and the selectivity ratio [15] was 3. The EC50 [16] was 6.8 nM.
